# Test results reported in patent US10617680B2 (CELGENE QUANTICEL RESEARCH, INC., priority 2017, dated 2020).
# Where two headings read alike, the source gives them in different places.
# Tests used:
# BRD4 = BRD4 (Homo sapiens (Human), UniProt O60885); test: In vitro enzyme inhibition assay - BRD4 inhibition; format: binding; settings: BRD4 BD1, Table 30
# CBP = CBP (Homo sapiens (Human), UniProt Q92793); test: In vitro CBP inhibition (AlphaScreen, biotinylated H4-tetraacetyl peptide); format: binding
# Sequence of CBP (Q92793 1081-1197): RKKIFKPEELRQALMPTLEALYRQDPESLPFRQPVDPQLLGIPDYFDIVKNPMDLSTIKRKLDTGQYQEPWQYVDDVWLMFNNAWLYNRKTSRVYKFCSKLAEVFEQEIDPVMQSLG
# Outline: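 His-tagged CBP expressed in E. coli (50 nM final) incubated with biotinylated H4K5/8/12/16(Ac) peptide (20 nM final) in 50 mM HEPES pH 7.3, 10 mM NaCl, 0.25 mM TCEP, 0.1% BSA, 0.005% Brij-35, 0.4% DMSO, 20 min at room temp.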
# [1] = AlphaScreen, Table 29, read-out: CBP IC50
# [2] = Table 30, read-out: CRREBBP IC50
SMILES,IC50 (BRD4) [nM],IC50 (CBP; [1]) [nM],IC50 (CBP; [2]) [nM]
"CC(c1ccccc1)n1cc(-c2cn(C)c(=O)cc2N2CCCC2)cn1 (stereo not drawn) [Example 41, 1-methyl-5-(1-(1-phenylethyl)-1H-pyrazol-4-yl)-4-(pyrrolidin-1-yl) pyridin-2(1H)-one]",500 to 5000,< 500,< 500
"Cn1cc(-c2cnn(CS(C)(=O)=O)c2)c(-c2ccccc2)cc1=O [Example 129, 1-methyl-5-(1-((methyl-sulfonyl)-methyl)-1H-pyrazol-4-yl)-4-phenylpyridin-2(1H)-one]",> 5000,< 500,< 500
"Cc1cc(-c2cc(=O)n(C)cc2-c2cnn(Cc3ccccc3)c2)[nH]n1 [Example 115, 5-(1-benzyl-1H-pyrazol-4-yl)-1-methyl-4-(3-methyl-1H-pyrazol-5-yl) pyridin-2(1H)-one]",> 5000,< 500,< 500
"Cn1cc(-c2cnn(Cc3ccccc3)c2)c(-n2ccnc2)cc1=O [Example 94, 5-(1-benzyl-1H-pyrazol-4-yl)-4-(1H-imidazol-1-yl)-1-methyl-pyridin-2(1H)-one]",> 5000,< 500,< 500
"Cn1cc(-c2cnn(-c3ccccc3S(C)(=O)=O)c2)c(-c2ccc(Cl)cc2)cc1=O [Example 286, 4-(4-Chloro-phenyl)-5-[1-(2-methanesulfonyl-phenyl)-1H-pyrazol-4-yl]-1-methyl-1H-pyridin-2-one]",> 5000,< 500,< 500
"CCNc1ncc(-c2cc(=O)n(C)cc2-c2cnn(-c3ccccc3C#N)c2)cn1 [Example 323, 2-(4-(4-(2-(ethylamino)pyrimidin-5-yl)-1-methyl-6-oxo-1,6-dihydropyridin-3-yl)-1H-pyrazol-1-yl)benzonitrile]",500 to 5000,< 500,< 500
"Cn1cc(-c2cnn(Cc3ccccc3)c2)c(-c2ccon2)cc1=O [Example 121, 5-(1-benzyl-1H-pyrazol-4-yl)-4-(isoxazol-3-yl)-1-methyl-pyridin-2(1H)-one]",> 5000,< 500,< 500
"Cc1cc(-c2nc(NS(C)(=O)=O)ncc2Oc2ccc(F)cc2F)cn(C)c1=O [N-(5-(2,4-difluorophenoxy)-4-(1,5-dimethyl-6-oxo-1,6-dihydropyridin-3-yl)pyrimidin-2-yl) methanesulfonamide]",< 500,–,> 5000
"Cc1cc(-c2cnn(C(c3ccccc3)C3CC3)c2)cn(C)c1=O (stereo not drawn) [Example 18, 5-(1-(cyclopropyl (phenyl)methyl)-1H-pyrazol-4-yl)-1,3-dimethyl-pyridin-2(1H)-one]",500 to 5000,–,–
"CC(c1ccccc1)n1cc(-c2cn(C)c(=O)cc2N2CCOCC2)cn1 (stereo not drawn) [Example 43, 1-methyl-4-morpholino-5-(1-(1-phenylethyl)-1H-pyrazol-4-yl) pyridin-2(1H)-one]",500 to 5000,< 500,< 500
"Cn1cc(-c2cnn(Cc3ccccc3)c2)c(N2CC[C@@H](C(=O)O)C2)cc1=O [Example 74, (R)-1-(5-(1-benzyl-1H-pyrazol-4-yl)-1-methyl-2-oxo-1,2-dihydro-pyridin-4-yl)pyrrolidine-3-carboxylic acid]",> 5000,< 500,< 500
"Cn1cc(-c2cnn(-c3ccccc3C(=O)O)c2)c(-c2ccccc2)cc1=O [Example 223, 2-[4-(1-Methyl-6-oxo-4-phenyl-1,6-dihydro-pyridin-3-yl)-pyrazol-1-yl]-benzoic acid]",> 5000,< 500,< 500
"CCOc1ccc(-c2cc(=O)n(C)cc2-c2cnn(-c3ccccc3C#N)c2)cn1 [Example 234, 2-[4-(6-Ethoxy-1′-methyl-6′-oxo-1′,6′-dihydro-[3,4′]bipyridinyl-3′-yl)-pyrazol-1-yl]-benzonitrile]",–,< 500,–
"CCOc1cc(=O)n(C)cc1-c1cnn(C2CCCN(S(C)(=O)=O)C2)c1 (stereo not drawn) [Example 181, 4-ethoxy-1-methyl-5-(1-(1-(methylsulfonyl)piperidin-3-yl)-1H-pyrazol-4-yl)pyridin-2(1H)-one]",–,< 500,–
"Cn1cc(-c2cnn(Cc3ccccc3)c2)c(N2CC[C@@H](NS(C)(=O)=O)C2)cc1=O [Example 174, (R)-N-(1-(5-(1-benzyl-1H-pyrazol-4-yl)-1-methyl-2-oxo-1,2-dihydropyridin-4-yl)pyrrolidin-3-yl)methanesulfonamide]",–,500 to 5000,–
"Cn1cc(-c2cnn(-c3ccccc3C#N)c2)c(-c2ccc(F)cc2)cc1=O [Example 215, 2-{4-[4-(4-Fluoro-phenyl)-1-methyl-6-oxo-1,6-dihydro-pyridin-3-yl]-pyrazol-1-yl}-benzonitrile]",–,< 500,–
"Cn1cc(-c2cnn(Cc3ccccc3)c2)c(N2CC[C@H](C(=O)O)C2)cc1=O [Example 75, (S)-1-(5-(1-benzyl-1H-pyrazol-4-yl)-1-methyl-2-oxo-1,2-dihydro-pyridin-4-yl)pyrrolidine-3-carboxylic acid]",–,< 500,–
"CNc1ncc(-c2cc(=O)n(C)cc2-c2cnn(C(C)c3ccccc3)c2)cn1 (stereo not drawn) [Example 309, 1-methyl-4-(2-(methylamino)pyrimidin-5-yl)-5-(1-(1-phenylethyl)-1H-pyrazol-4-yl)pyridin-2(1H)-one]",–,< 500,–
"Cn1cc(-c2cnn(-c3ccccc3C(=O)O)c2)c(-c2cccnc2)cc1=O [Example 227, 2-[4-(1′-Methyl-6′-oxo-1′,6′-dihydro-[3,4′]bipyridinyl-3′-yl)-pyrazol-1-yl]-benzoic acid]",–,< 500,–
"Cn1cc(-c2cnn(Cc3ccccc3)c2)c(OCCC(F)(F)F)cc1=O [Example 92, 5-(1-benzyl-1H-pyrazol-4-yl)-1-methyl-4-(3,3,3-trifluoro-propoxy)pyridin-2(1H)-one]",–,< 500,–
"COc1cccc(C(C)n2cc(-c3ccc(=O)n(C)c3)cn2)c1 (stereo not drawn) [Example 28, 5-(1-(1-(3-methoxy-phenyl)ethyl)-1H-pyrazol-4-yl)-1-methyl-pyridin-2(1H)--one]",–,< 500,–
